Experimental data reported in US20240208992A1, “MACROCYCLES AS CFTR MODULATORS” (Idorsia Pharmaceuticals Ltd, priority 2021, published 2024).

Target: human F508del-CFTR (Homo sapiens, UniProt P13569, DEL508-508)
Assay: F508del-CFTR cell surface expression (corrector activity), DiscoveRx ß-galactosidase complementation chemiluminescence assay in recombinant U2OS cell line;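 further: U2OS cells co-expressing ProLink-tagged F508del-CFTR and a membrane-anchored enzyme acceptor, where more surface CFTR restores β-galactosidase activity measured by chemiluminescence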
Conditions: for EC50: EC50, F508del-CFTR cell surface expression, U2OS cells, 16h compound incubation, geomean values; for Emax: U2OS, in relation to Emax of corrector lumacaftor (=100%), arithmetic mean values

human F508del-CFTR, sequence (P13569 with tags, fused parts or gaps DEL508-508): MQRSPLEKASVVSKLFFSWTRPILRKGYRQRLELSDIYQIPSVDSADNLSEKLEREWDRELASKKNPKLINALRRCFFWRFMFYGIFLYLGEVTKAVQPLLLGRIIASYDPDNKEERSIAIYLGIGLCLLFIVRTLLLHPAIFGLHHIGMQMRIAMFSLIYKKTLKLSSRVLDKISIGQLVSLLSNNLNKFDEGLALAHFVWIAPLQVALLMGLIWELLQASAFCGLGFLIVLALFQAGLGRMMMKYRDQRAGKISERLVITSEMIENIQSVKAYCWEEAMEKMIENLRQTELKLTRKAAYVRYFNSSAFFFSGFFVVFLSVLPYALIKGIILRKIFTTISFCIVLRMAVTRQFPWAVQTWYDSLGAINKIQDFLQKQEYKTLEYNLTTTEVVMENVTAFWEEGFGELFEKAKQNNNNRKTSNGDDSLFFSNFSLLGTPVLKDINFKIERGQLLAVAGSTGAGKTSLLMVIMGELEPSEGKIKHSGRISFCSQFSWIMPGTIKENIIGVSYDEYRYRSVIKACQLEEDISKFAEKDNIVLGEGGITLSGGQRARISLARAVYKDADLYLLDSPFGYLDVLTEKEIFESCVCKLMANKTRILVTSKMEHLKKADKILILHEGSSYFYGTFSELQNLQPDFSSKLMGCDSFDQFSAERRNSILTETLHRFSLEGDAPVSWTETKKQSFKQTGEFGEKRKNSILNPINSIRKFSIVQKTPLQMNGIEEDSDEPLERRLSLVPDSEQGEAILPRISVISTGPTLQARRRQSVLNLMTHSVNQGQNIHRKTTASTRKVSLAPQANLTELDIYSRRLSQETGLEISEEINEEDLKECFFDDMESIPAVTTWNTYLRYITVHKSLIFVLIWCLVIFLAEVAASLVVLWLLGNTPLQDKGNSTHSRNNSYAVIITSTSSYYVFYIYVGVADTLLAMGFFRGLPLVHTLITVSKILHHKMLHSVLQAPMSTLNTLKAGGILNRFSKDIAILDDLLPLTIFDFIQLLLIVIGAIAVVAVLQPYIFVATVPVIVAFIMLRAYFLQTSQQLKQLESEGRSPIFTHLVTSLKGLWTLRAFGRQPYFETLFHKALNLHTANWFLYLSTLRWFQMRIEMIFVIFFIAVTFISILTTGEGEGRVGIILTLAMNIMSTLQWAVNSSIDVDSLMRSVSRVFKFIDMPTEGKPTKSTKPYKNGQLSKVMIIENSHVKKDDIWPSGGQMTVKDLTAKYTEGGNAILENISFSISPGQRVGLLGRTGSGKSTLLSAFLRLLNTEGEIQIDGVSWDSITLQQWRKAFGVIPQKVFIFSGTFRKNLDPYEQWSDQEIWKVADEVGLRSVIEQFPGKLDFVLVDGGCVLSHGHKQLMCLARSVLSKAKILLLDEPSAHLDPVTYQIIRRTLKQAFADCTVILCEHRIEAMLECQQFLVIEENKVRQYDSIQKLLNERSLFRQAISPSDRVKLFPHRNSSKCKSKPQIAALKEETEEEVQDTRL

| Compound | EC50 | Emax |
| --- | --- | --- |
| COCCN1CCN2C(=O)[C@H](CC(C)C)N(C)C(=O)C[C@@H](C(=O)NCCc3cccc(OC(F)F)c3)NC(=O)c3c(cnc4ccccc34)OC[C@@H](Cc3ccccc3)NC(=O)[C@H]2C1 [Example 414, (9S,13S,19aR,22R)-22-benzyl-N-(3-(difluoromethoxy)phenethyl)-13-isobutyl-18-(2-methoxyethyl)-12-methyl-7,11,14,20-tetraoxo-7,8,9,10,11,12,13,14,17,18,19,19a,20,21,22,23-hexadecahydro-16H-pyrazino[2′,1′:6,7][1]oxa[4,7,10,14]tetraazacycloheptadecino[17,16-c]quinoline-9-carboxamide] | 372 nM | 251% |
| COCCN1CCN2C(=O)[C@H](CC(C)C)N(C)C(=O)C[C@@H](C(=O)NCCc3nc4c(s3)CCC4)NC(=O)c3c(cnc4ccccc34)OC[C@@H](Cc3ccccc3)NC(=O)[C@H]2C1 [Example 415, (9S,13S,19aR,22R)-22-benzyl-N-(2-(5,6-dihydro-4H-cyclopenta[d]thiazol-2-yl)ethyl)-13-isobutyl-18-(2-methoxyethyl)-12-methyl-7,11,14,20-tetraoxo-7,8,9,10,11,12,13,14,17,18,19,19a,20,21,22,23-hexadecahydro-16H-pyrazino[2′,1′:6,7][1]oxa[4,7,10,14]tetraazacycloheptadecino[17,16-c]quinoline-9-carboxamide] | 840 nM | 274% |
| COc1cccc(CCNC(=O)[C@@H]2CC(=O)N(C)[C@@H](CC(C)C)C(=O)N3CCN(CCO)C[C@@H]3C(=O)N[C@H](Cc3ccccc3)COc3ccc4ccccc4c3C(=O)N2)c1 [Example 416, (4aR,7R,18S,22S)-7-benzyl-3-(2-hydroxyethyl)-22-isobutyl-N-(3-methoxyphenethyl)-21-methyl-5,16,20,23-tetraoxo-2,3,4,4a,5,6,7,8,16,17,18,19,20,21,22,23-hexadecahydro-1H-naphtho[1,2-p]pyrazino[2,1-f][1]oxa[4,7,10,14]tetraazacycloheptadecine-18-carboxamide] | 526 nM | 345% |
| COc1cccc(CCNC(=O)[C@@H]2CC(=O)N(C)[C@@H](CC(C)C)C(=O)N3CCN(C4CC4)C[C@@H]3C(=O)N[C@H](Cc3ccccc3)COc3ccc4nc(C)oc4c3C(=O)N2)c1 [Example 417, (8S,12S,18aR,21R)-21-benzyl-17-cyclopropyl-12-isobutyl-N-(3-methoxyphenethyl)-4,11-dimethyl-6,10,13,19-tetraoxo-6,7,8,9,10,11,12,13,16,17,18,18a,19,20,21,22-hexadecahydro-15H-oxazolo[4′,5′:5,6]benzo[1,2-p]pyrazino[2,1-f][1]oxa[4,7,10,14]tetraazacycloheptadecine-8-carboxamide] | 437 nM | 343% |
| CCOc1cccc(CCNC(=O)[C@@H]2CC(=O)N(C)[C@@H](CC(C)C)C(=O)N3CCN(C4CC4)C[C@@H]3C(=O)N[C@H](Cc3ccccc3)COc3ccc4nc(C)oc4c3C(=O)N2)c1 [Example 418, (8S,12S,18aR,21R)-21-benzyl-17-cyclopropyl-N-(3-ethoxyphenethyl)-12-isobutyl-4,11-dimethyl-6,10,13,19-tetraoxo-6,7,8,9,10,11,12,13,16,17,18,18a,19,20,21,22-hexadecahydro-15H-oxazolo[4′,5′:5,6]benzo[1,2-p]pyrazino[2,1-f][1]oxa[4,7,10,14]tetraazacycloheptadecine-8-carboxamide] | 276 nM | 259% |
| Cc1nc2ccc3c(c2o1)C(=O)N[C@H](C(=O)NCCc1cccc(OC(F)F)c1)CC(=O)N(C)[C@@H](CC(C)C)C(=O)N1CCN(C2CC2)C[C@@H]1C(=O)N[C@H](Cc1ccccc1)CO3 [Example 419, (8S,12S,18aR,21R)-21-benzyl-17-cyclopropyl-N-(3-(difluoromethoxy)phenethyl)-12-isobutyl-4,11-dimethyl-6,10,13,19-tetraoxo-6,7,8,9,10,11,12,13,16,17,18,18a,19,20,21,22-hexadecahydro-15H-oxazolo[4′,5′:5,6]benzo[1,2-p]pyrazino[2,1-f][1]oxa[4,7,10,14]tetraazacycloheptadecine-8-carboxamide] | 358 nM | 243% |
| Cc1nc2ccc3c(c2o1)C(=O)N[C@H](C(=O)NCCc1nc2c(s1)CCC2)CC(=O)N(C)[C@@H](CC(C)C)C(=O)N1CCN(C2CC2)C[C@@H]1C(=O)N[C@H](Cc1ccccc1)CO3 [Example 420, (8S,12S,18aR,21R)-21-benzyl-17-cyclopropyl-N-(2-(5,6-dihydro-4H-cyclopenta[d]thiazol-2-yl)ethyl)-12-isobutyl-4,11-dimethyl-6,10,13,19-tetraoxo-6,7,8,9,10,11,12,13,16,17,18,18a,19,20,21,22-hexadecahydro-15H-oxazolo[4′,5′:5,6]benzo[1,2-p]pyrazino[2,1-f][1]oxa[4,7,10,14]tetraazacycloheptadecine-8-carboxamide] | 437 nM | 231% |
| Cc1nc2ccc3c(c2o1)C(=O)N[C@H](C(=O)NCCc1ccc2c(c1)OCCO2)CC(=O)N(C)[C@@H](CC(C)C)C(=O)N1CCN(C2CC2)C[C@@H]1C(=O)N[C@H](Cc1ccccc1)CO3 [Example 421, (8S,12S,18aR,21R)-21-benzyl-17-cyclopropyl-N-(2-(2,3-dihydrobenzo[b][1,4]dioxin-6-yl)ethyl)-12-isobutyl-4,11-dimethyl-6,10,13,19-tetraoxo-6,7,8,9,10,11,12,13,16,17,18,18a,19,20,21,22-hexadecahydro-15H-oxazolo[4′,5′:5,6]benzo[1,2-p]pyrazino[2,1-f][1]oxa[4,7,10,14]tetraazacycloheptadecine-8-carboxamide] | 391 nM | 320% |
| Cc1nc2ccc3c(c2o1)C(=O)N[C@H](C(=O)NCCc1cccc(C(C)(F)F)c1)CC(=O)N(C)[C@@H](CC(C)C)C(=O)N(CCC1CCCCC1)CC(=O)N[C@H](Cc1ccccc1)CO3 [Example 422, (8R,14S,18S)-8-benzyl-12-(2-cyclohexylethyl)-N-(3-(1,1-difluoroethyl)phenethyl)-14-isobutyl-2,15-dimethyl-10,13,16,20-tetraoxo-7,8,9,10,11,12,13,14,15,16,17,18,19,20-tetradecahydrooxazolo[4′,5′:5,6]benzo[1,2-p][1]oxa[4,7,10,14]tetraazacycloheptadecine-18-carboxamide] | 192 nM | 193% |
| COc1cccc(CCNC(=O)[C@@H]2CC(=O)N(C)[C@@H](CC(C)C)C(=O)N3CCCC[C@@H]3C(=O)N[C@H](Cc3ccccc3)COc3ccc4c(cnn4C)c3C(=O)N2)c1 [Example 423, (8S,12S,18aR,21R)-21-benzyl-12-isobutyl-N-(3-methoxyphenethyl)-3,11-dimethyl-6,10,13,19-tetraoxo-6,7,8,9,10,11,12,13,16,17,18,18a,19,20,21,22-hexadecahydro-3H,15H-pyrido[2′,1′:6,7][1]oxa[4,7,10,14]tetraazacycloheptadecino[16,17-e]indazole-8-carboxamide] | 278 nM | 239% |
| COc1cccc(CCNC(=O)[C@@H]2CC(=O)N(C)[C@@H](CC(C)C)C(=O)N3CCOC[C@@H]3C(=O)N[C@H](Cc3ccccc3)COc3ccc4c(cnn4C)c3C(=O)N2)c1 [Example 424, (8S,12S,18aR,21R)-21-benzyl-12-isobutyl-N-(3-methoxyphenethyl)-3,11-dimethyl-6,10,13,19-tetraoxo-6,7,8,9,10,11,12,13,15,16,18,18a,19,20,21,22-hexadecahydro-3H-[1,4]oxazino[3′,4′:6,7][1]oxa[4,7,10,14]tetraazacycloheptadecino[16,17-e]indazole-8-carboxamide] | 831 nM | 235% |
| COc1cccc(CCNC(=O)[C@@H]2CC(=O)N(C)[C@@H](CC(C)C)C(=O)N3CCN(CC4CC4)C[C@@H]3C(=O)N[C@H](Cc3ccccc3)COc3ccc4nc(C)oc4c3C(=O)N2)c1 [Example 425, (8S,12S,18aR,21R)-21-benzyl-17-(cyclopropylmethyl)-12-isobutyl-N-(3-methoxyphenethyl)-4,11-dimethyl-6,10,13,19-tetraoxo-6,7,8,9,10,11,12,13,16,17,18,18a,19,20,21,22-hexadecahydro-15H-oxazolo[4′,5′:5,6]benzo[1,2-p]pyrazino[2,1-f][1]oxa[4,7,10,14]tetraazacycloheptadecine-8-carboxamide] | 348 nM | 364% |
| Cc1nc2ccc3c(c2o1)C(=O)N[C@H](C(=O)NCCc1cccc(OC(F)F)c1)CC(=O)N(C)[C@@H](CC(C)C)C(=O)N1CCN(CC2CC2)C[C@@H]1C(=O)N[C@H](Cc1ccccc1)CO3 [Example 426, (8S,12S,18aR,21R)-21-benzyl-17-(cyclopropylmethyl)-N-(3-(difluoromethoxy)phenethyl)-12-isobutyl-4,11-dimethyl-6,10,13,19-tetraoxo-6,7,8,9,10,11,12,13,16,17,18,18a,19,20,21,22-hexadecahydro-15H-oxazolo[4′,5′:5,6]benzo[1,2-p]pyrazino[2,1-f][1]oxa[4,7,10,14]tetraazacycloheptadecine-8-carboxamide] | 269 nM | 217% |
| CCOc1cccc(CCNC(=O)[C@@H]2CC(=O)N(C)[C@@H](CC(C)C)C(=O)N3CCN(CC4CC4)C[C@@H]3C(=O)N[C@H](Cc3ccccc3)COc3ccc4nc(C)oc4c3C(=O)N2)c1 [Example 427, (8S,12S,18aR,21R)-21-benzyl-17-(cyclopropylmethyl)-N-(3-ethoxyphenethyl)-12-isobutyl-4,11-dimethyl-6,10,13,19-tetraoxo-6,7,8,9,10,11,12,13,16,17,18,18a,19,20,21,22-hexadecahydro-15H-oxazolo[4′,5′:5,6]benzo[1,2-p]pyrazino[2,1-f][1]oxa[4,7,10,14]tetraazacycloheptadecine-8-carboxamide] | 248 nM | 274% |
